Reference: ChEMBL document CHEMBL1201862, “PubChem BioAssay data set” (2004)
One block for each molecule: values may come before it. Active and inactive are the calls of the source.

Legend:
INS1 = assay: beta cell apoptosis inhibitors, cytokine rescue, dose response, luminescence, retest (AID 449756); format: functional, cell-based; conditions: Rattus norvegicus;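 note: cell death triggered by IL-1 beta plus TNF-alpha plus IFN-gamma mixture; protective hits raise ATP signal compared with cytokine alone wells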
[1] = biological target: T1, Type-1 angiotensin II receptor (Homo sapiens, UniProt P30556); assay: AT1 receptor antagonists, dose response, selectivity assay for APJ receptor antagonist project, cell-based, uHTS hits (AID 463214); format: functional;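 note: antagonist potency against angiotensin II stimulated AT1 response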
T1 sequence (P30556 whole entry): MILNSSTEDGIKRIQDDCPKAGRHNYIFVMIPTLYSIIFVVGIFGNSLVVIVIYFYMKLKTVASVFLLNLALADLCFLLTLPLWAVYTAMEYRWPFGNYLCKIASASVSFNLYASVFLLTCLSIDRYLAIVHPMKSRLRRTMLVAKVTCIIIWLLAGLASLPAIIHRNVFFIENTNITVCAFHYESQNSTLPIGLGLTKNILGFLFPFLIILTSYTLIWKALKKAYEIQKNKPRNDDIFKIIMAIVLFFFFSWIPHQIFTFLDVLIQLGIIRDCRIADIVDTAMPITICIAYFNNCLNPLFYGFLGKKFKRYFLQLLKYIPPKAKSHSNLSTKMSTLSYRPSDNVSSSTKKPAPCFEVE

Beta-galactosidase = Beta-galactosidase (Escherichia coli, UniProt Q8VNN2); assay: PubChem AID 485352; format: functional
Beta-galactosidase, sequence (Q8VNN2 whole entry): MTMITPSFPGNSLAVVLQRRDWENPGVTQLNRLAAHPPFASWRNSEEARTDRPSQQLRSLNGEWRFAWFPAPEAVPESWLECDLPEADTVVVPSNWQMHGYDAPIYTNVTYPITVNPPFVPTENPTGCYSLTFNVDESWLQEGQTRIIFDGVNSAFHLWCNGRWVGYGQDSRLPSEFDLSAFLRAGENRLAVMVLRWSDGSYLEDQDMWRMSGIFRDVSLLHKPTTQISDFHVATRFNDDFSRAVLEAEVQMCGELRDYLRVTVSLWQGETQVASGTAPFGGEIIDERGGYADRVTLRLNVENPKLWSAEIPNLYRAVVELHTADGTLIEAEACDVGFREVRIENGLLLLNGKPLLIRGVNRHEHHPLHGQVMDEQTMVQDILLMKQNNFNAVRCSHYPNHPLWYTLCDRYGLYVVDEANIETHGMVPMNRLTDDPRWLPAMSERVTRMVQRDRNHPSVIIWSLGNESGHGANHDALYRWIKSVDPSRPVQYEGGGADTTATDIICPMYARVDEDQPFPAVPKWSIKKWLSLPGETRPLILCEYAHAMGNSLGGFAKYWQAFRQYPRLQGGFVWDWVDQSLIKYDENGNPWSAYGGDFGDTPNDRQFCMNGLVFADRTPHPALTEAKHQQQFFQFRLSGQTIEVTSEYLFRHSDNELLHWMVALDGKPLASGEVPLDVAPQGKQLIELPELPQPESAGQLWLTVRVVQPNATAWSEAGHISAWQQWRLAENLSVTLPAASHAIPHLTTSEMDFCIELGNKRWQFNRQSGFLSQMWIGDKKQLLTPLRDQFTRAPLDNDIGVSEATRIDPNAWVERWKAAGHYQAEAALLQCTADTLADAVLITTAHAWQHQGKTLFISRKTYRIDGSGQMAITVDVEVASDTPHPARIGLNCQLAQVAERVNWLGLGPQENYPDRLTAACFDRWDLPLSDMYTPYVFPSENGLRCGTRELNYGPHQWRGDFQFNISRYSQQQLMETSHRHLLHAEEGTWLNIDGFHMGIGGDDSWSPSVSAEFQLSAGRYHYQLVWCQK

H9c2 = assay: cells; format: functional, cell-based; conditions: Rattus norvegicus, H9c2, Myocardium;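 note: confirmatory concentration-response retest of ultra-high-throughput screening hits for modulation of myocardial damage; cell death induced by hydrogen peroxide oxidative stress; compound pretreatment for 60 min then peroxide exposure for 2 h; potency is for protecting the cells against peroxide damage rather than for killing them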
[2] = biological target: Voltage-gated inwardly rectifying potassium channel KCNH2 (Homo sapiens, UniProt Q12809); conditions: Potency;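 note: confirmatory quantitative high-throughput screen measuring inhibition of hERG channel activity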
Voltage-gated inwardly rectifying potassium channel KCNH2, sequence (Q12809 whole entry): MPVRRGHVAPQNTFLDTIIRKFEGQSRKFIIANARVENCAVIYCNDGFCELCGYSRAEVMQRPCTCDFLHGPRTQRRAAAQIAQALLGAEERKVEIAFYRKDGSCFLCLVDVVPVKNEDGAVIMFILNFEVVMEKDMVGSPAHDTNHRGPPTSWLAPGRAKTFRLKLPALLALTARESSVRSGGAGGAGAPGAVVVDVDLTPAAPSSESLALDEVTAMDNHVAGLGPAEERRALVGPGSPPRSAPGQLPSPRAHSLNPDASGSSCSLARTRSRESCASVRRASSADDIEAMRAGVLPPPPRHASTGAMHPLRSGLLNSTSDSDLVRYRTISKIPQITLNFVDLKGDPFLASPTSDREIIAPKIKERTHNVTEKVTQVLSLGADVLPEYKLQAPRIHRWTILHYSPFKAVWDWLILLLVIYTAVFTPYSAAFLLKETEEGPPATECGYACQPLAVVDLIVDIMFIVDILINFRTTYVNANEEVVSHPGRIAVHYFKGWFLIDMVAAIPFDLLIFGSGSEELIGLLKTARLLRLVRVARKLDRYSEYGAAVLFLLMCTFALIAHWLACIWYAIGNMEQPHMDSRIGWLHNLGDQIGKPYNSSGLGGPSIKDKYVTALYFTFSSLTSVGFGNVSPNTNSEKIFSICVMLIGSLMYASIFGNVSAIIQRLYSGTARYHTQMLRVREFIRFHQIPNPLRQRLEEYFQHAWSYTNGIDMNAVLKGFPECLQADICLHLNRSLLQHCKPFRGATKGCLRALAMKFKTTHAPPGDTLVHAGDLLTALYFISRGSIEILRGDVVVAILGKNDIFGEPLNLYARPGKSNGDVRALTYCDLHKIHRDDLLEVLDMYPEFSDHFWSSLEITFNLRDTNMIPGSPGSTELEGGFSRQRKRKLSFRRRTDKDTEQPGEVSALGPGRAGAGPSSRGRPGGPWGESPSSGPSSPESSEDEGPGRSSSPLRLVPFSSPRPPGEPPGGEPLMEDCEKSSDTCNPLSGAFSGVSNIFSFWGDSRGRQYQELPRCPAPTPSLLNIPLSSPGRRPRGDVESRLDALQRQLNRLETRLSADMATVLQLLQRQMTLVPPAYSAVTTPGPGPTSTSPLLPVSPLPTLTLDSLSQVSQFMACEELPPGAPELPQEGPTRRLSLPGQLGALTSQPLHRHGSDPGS

[3] = cytotoxicity in MIN6 insulinoma cells, dose response, cytotoxicity control, cell-based, mouse insulinoma (AID 2122); format: functional;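 note: confirmatory high-throughput counterscreen run to flag cytotoxic compounds; mouse MIN-6 beta cells carrying an insulin promoter eGFP reporter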
[4] = insulin promoter down-regulators in MIN6 cells, imaging, high-content screening, mouse beta cells (AID 1628); format: functional
Insulin-degrading enzyme [5] = biological target: T2, Insulin-degrading enzyme (Homo sapiens, UniProt P14735); assay: activators of endogenous IDE in HEK cells, dose response, cell-based, fluorescence polarization (AID 588439); format: functional
T2 sequence (P14735 whole entry): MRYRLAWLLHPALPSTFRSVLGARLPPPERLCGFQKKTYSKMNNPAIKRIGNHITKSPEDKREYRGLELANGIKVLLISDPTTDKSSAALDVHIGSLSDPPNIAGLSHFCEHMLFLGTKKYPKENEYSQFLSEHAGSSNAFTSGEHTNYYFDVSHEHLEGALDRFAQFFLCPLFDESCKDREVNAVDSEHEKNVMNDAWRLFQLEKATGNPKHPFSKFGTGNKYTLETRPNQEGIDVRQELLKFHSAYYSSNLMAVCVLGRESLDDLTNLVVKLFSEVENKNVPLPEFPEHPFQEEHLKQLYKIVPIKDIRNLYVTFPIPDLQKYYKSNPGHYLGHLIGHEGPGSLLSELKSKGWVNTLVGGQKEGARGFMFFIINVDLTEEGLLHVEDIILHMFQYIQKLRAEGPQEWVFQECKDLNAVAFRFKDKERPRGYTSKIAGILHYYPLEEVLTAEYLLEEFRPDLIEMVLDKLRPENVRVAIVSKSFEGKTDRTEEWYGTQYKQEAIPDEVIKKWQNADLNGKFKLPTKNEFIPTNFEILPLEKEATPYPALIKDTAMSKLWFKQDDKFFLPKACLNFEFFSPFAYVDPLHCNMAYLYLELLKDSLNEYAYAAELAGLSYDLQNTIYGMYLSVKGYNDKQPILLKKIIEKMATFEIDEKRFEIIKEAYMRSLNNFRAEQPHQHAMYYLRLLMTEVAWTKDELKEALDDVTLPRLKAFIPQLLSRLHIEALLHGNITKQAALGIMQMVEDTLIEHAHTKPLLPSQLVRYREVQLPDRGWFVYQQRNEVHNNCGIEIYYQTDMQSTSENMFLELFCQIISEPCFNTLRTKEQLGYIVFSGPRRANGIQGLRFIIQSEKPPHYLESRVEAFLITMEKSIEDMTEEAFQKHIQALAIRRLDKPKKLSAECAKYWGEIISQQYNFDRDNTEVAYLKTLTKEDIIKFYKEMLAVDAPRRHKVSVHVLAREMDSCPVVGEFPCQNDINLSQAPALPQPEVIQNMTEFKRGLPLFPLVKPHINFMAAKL

HEK293 [6] = assay: optical interference in Abeta FP readout, dose response, artefact control for IDE activator project, biochemical, fluorescence polarization (AID 588442); format: functional, cell-based; conditions: Homo sapiens
HEK293 [7] = assay: HEK cell cytotoxicity by LDH release, dose response, cytotoxicity control for IDE activator project, fluorescence, HEK cells (AID 588440); format: functional, cell-based; conditions: Homo sapiens;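 note: cytotoxicity by LDH release measuring loss of membrane integrity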
Insulin-degrading enzyme [8] = biological target: T2, Insulin-degrading enzyme; assay: activators of recombinant IDE enzyme, dose response, counter-screen for IDE activator project, biochemical, fluorescence polarization (AID 588681)
[9] = biological target: T3, Heat shock factor protein 1 (Mus musculus, UniProt P38532); assay: HSF1 potentiators in luciferase reporter cells, confirmation, cell-based, NIH3T3, luminescence, dose retest (AID 435004); format: functional;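 note: stress induced by proteasome inhibitor MG132 added 30 min after compound; luciferase reporter driven by HSF1 response element in NIH3T3 cells; actives raise luminescence as potentiators of the MG132 stress response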
T3 sequence (P38532 whole entry): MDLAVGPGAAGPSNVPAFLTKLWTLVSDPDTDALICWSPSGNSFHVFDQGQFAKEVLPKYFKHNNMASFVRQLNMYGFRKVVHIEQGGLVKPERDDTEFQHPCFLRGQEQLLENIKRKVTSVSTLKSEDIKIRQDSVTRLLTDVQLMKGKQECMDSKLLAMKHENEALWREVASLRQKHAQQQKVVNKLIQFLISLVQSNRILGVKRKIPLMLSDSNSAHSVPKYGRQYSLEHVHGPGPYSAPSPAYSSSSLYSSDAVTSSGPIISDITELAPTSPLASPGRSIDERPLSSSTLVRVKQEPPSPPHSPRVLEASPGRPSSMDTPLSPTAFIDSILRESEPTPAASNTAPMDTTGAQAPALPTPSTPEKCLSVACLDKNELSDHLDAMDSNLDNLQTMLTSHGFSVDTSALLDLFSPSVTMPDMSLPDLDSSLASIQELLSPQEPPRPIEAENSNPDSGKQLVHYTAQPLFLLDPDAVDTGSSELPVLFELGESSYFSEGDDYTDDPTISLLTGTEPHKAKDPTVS

[10] = biological target: T4, Apoptotic protease-activating factor 1 (Homo sapiens, UniProt O14727); format: functional
T4 sequence (O14727 whole entry): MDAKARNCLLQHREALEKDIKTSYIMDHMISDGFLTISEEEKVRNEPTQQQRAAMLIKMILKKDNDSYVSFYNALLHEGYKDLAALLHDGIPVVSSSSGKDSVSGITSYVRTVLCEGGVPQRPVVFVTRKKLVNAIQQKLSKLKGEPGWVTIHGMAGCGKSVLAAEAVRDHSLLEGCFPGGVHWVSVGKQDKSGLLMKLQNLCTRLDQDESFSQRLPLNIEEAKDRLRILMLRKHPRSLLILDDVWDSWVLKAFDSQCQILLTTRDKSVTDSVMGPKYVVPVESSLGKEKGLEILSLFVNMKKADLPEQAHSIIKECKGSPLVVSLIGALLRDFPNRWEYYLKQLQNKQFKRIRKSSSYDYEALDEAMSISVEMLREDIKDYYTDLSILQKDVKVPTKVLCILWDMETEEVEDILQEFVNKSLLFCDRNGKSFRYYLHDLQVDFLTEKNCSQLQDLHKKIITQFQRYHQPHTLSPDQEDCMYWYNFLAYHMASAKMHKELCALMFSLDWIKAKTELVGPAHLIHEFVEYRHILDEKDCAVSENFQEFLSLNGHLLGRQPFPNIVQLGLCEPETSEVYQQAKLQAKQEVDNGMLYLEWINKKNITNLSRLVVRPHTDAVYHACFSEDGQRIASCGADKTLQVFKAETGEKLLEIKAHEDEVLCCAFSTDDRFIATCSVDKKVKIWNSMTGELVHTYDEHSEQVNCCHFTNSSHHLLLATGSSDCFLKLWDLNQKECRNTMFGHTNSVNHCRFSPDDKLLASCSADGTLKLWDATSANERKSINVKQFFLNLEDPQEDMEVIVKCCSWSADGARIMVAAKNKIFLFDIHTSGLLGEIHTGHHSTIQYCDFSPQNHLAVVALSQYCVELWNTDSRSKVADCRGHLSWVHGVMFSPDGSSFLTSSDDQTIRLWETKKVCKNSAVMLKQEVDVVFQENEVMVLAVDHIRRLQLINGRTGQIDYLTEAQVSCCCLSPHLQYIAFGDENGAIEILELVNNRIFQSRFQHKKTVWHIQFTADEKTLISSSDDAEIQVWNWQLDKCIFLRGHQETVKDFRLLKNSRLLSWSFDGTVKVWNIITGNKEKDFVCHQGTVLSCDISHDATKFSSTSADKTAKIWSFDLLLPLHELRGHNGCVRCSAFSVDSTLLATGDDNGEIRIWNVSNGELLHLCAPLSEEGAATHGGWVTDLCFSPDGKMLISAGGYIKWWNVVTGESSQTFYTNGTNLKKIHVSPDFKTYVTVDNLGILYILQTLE

[11] = biological target: T5, Orexin/Hypocretin receptor type 1 (Homo sapiens, UniProt O43613); assay: Homogeneous Time Resolved Fluorescence (HTRF)-based cell-based high throughput dose response assay for antagonists of the orexin 1 receptor (OX1R; HCRTR1). [Related pubchem assays (depositor defined):AID434989, AID435008, AID463079, AID485270, AID492963, AID492964, AID492965, AID493232, AID504717, AID504718]; format: functional
T5 sequence (O43613 whole entry): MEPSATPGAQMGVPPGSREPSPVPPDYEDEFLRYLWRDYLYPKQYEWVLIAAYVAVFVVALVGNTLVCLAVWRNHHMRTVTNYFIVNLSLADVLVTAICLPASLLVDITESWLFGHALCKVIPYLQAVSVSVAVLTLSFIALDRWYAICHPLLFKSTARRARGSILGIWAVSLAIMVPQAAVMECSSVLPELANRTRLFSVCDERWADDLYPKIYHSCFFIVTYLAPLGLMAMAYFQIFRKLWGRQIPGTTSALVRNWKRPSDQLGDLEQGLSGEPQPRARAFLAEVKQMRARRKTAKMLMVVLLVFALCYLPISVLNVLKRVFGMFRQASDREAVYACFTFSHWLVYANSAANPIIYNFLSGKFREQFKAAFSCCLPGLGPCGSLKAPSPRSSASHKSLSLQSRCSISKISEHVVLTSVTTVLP

[12] = (§1) Counterscreen for antagonists of the orexin 1 receptor (OX1R; HCRTR1): Fluorescence-based cell-based high throughput dose response assay to identify antagonists of the parental CHO cell line. [Related pubchem assays (depositor defined):AID434989, AID435008, AID463079, AID485270, AID492963, AID492964, AID492965, AID493232, AID504699, AID504701]; format: functional
[13] = biological target: T5, Orexin/Hypocretin receptor type 1; assay: Fluorescence-based cell-based high throughput dose response assay for antagonists of the orexin 1 receptor (OX1R; HCRTR1). [Related pubchem assays (depositor defined):AID434989, AID435008, AID463079, AID485270, AID492963, AID492964, AID492965, AID493232, AID504717, AID504718]; format: functional
CHO-K1 = assay: as §1, with “Homogeneous time resolved fluorescence (HTRF)-based” for “Fluorescence-based”, “cell-based” for “cell-based high throughput”, “CHO-K1” for “CHO”; format: functional; conditions: Cricetulus griseus;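 note: potency for inhibition of ATP-stimulated IP1 production as antagonists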
Vero = Vero cell cytotoxicity, cytotoxicity control for flavivirus capping enzyme inhibitors (AID 588742); format: functional; conditions: Chlorocebus sabaeus

SMILES: COc1ccc2c(c1)C(=O)[C@@H](O)[C@H](c1ccc(OC)c(Br)c1)O2
AC50 (INS1): 4.2 µM (active)
IC50 [1]: 34.6 µM (not active)
EC50 (Beta-galactosidase): > 40 µM (inactive)
IC50 (H9c2): > 79 µM (inactive)

SMILES: O=C=Nc1ccc(Cc2ccc(N=C=O)cc2)cc1
AC50 [2]: 79.4 µM (inconclusive)

SMILES: Cc1cc(NC(=O)c2cnn3c(C(F)(F)F)cc(-c4ccccc4)nc23)no1
IC50 [3]: > 16 µM (inactive)
IC50 [4]: 1.99 µM (active)

SMILES: CCOC(=O)C1(CC2CC2)CCN(Cc2cnc(N(C)C)s2)CC1
EC50 (Insulin-degrading enzyme [5]): > 54.7 µM (inactive)
EC50 (HEK293 [6]): > 56 µM (inactive)
IC50 (HEK293 [7]): > 89.3 µM (inactive)
EC50 (Insulin-degrading enzyme [8]): > 54.7 µM (inactive)

IC50 [1]: > 40 µM (not active)
EC50 (Beta-galactosidase): > 40 µM (inactive)
SMILES: Cc1nn(CCC(=O)NN=C(S)Nc2ccccc2)c(C)c1Br

SMILES: CC(/C=C/c1cccc(Oc2ccc(F)cc2)c1)N(O)C(N)=O (stereo not drawn)
AC50 [2]: 0.2 µM (inconclusive)

IC50 [1]: 28.4 µM (not active)
EC50 (Beta-galactosidase): > 40 µM (inactive)
EC50 [9]: > 260 µM (inactive)
SMILES: COC(=O)C1NN=C(C(=O)c2ccc(Cl)cc2)C1c1ccc(OC)cc1 (stereo not drawn)

SMILES: CC(C)CN(C(=O)COC(=O)c1ccc(Br)cc1)c1c(N)n(Cc2ccccc2)c(=O)[nH]c1=O
EC50 (Insulin-degrading enzyme [5]): > 54.7 µM (inactive)
EC50 (HEK293 [6]): > 55.9 µM (inactive)
IC50 (HEK293 [7]): 13.4 µM (inactive)
EC50 (Insulin-degrading enzyme [8]): > 54.7 µM (inactive)

IC50 [10]: > 100 µM (inactive)
SMILES: CC1(C)Cc2cccc(OCC(=O)N3CCN(c4cccc(C(F)(F)F)c4)CC3)c2O1

SMILES: O=c1sc(Nc2ccccc2)nc2ccsc12
IC50 [11]: 2.43 µM (active)
IC50 [12]: > 49.8 µM (inactive)
IC50 [13]: 12.9 µM (inactive)
IC50 (CHO-K1): > 66.2 µM (inactive)

SMILES: CCCCOC(=O)c1ccccc1C(=O)OCCCC [DIBUTYL PHTHALATE]
AC50 [2]: 79.4 µM (inconclusive)

SMILES: COc1ccc(C(=O)NC2CC(C)(C)Cc3occc32)cc1 (stereo not drawn)
CC50 (Vero): > 40 µM (active)
